Where two headings read alike, the source gives them in different places.
Experiments:
[1] = tested on: human lung cancer strain NCI-H441; assay: NCI-H441 cell proliferation inhibitory activity (CellTiter-Glo, 4 days); assay type: cell-based; details: read-out: NCl-H441 IC50
Summary of the method: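 Step one: dispense the test compound in serial DMSO dilutions. Step three: add the reagent and measure […].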

[2] = biological target: GDP-bound NRAS wild-type protein (Homo sapiens, UniProt P01111); assay: Binding to NRAS by surface plasmon resonance (SPR), KD and KD ratio to KRAS
Chain of GDP-bound NRAS wild-type protein (P01111 whole entry): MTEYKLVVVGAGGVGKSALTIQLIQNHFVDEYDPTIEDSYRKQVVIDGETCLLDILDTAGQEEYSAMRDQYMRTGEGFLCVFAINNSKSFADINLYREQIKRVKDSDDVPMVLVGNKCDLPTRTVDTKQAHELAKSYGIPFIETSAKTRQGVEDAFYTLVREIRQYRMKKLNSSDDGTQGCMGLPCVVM
Summary of the method: (§1)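 Running buffer contained 10 µM GDP and 10 mM MgCl2 to keep RAS in the GDP state, with 4% DMSO at pH 7.4. Compounds were flowed at 100 µL/min in 75 s steps of rising concentration over captured biotin-Avi RAS at 30°C. Sensorgrams were fitted 1:1 for KD.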

[3] = biological target: GDP-bound KRAS wild-type protein (Homo sapiens, UniProt P01116); assay: Binding to KRAS by surface plasmon resonance (SPR), dissociation constant KD
Chain of GDP-bound KRAS wild-type protein (P01116 1-188 isoform P01116-2): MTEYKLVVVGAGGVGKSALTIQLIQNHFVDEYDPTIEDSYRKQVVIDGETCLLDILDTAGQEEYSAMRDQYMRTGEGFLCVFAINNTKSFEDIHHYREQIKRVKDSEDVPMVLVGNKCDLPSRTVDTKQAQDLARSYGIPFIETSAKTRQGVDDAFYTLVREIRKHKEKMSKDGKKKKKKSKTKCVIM
Summary of the method: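 Compound binding is evaluated by SPR single-cycle kinetics, with concentrations added intermittently from low to high for 75 s each. Target surfaces carry GDP-loaded biotinylated Avi-RAS at about 100–300 RU, regenerated after each cycle; temperature 30°C. A 1:1 binding model gives KD.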

[4] = biological target: HRAS wild-type protein (Homo sapiens, UniProt P01112); assay: Binding to HRAS by surface plasmon resonance (SPR), KD and KD ratio to KRAS
Chain of HRAS wild-type protein (P01112 whole entry): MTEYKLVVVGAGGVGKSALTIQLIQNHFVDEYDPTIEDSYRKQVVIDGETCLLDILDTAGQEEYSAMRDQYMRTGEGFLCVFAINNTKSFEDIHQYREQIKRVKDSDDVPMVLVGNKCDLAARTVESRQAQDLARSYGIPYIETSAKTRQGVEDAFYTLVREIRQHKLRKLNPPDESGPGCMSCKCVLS
Summary of the method: as §1

[5] = ratio of KD for GDP-bound NRAS wild-type protein to KD for KRAS
[6] = ratio of KD for HRAS wild-type protein to KD for KRAS
[7] = 50% proliferation inhibitory concentration, four days
[8] = ratio of KD with respect to GDP-bound NRAS wild-type protein to KD with respect to KRAS
[9] = Single Cycle Kinetics, 1:1 binding model
[10] = ratio of KD with respect to HRAS wild-type protein to KD with respect to KRAS

SMILES	IC50 ([1]; NCI-H441 cells, 4 days)	NRAS /KRAS [2, 5]	Kd ([3]; 1:1 binding model)	HRAS /KRAS [4, 6]	Kd ([3]; Single Cycle Kinetics)	IC50 [1, 7]	NRAS /KRAS [2, 8]	Kd [3, 9]	HRAS /KRAS [4, 10]
CCOC[C@H]1C(=O)N[C@@H]([C@@H](C)CC)C(=O)N(C)CC(=O)N(C)[C@H]2C/C=C\CCN(C2=O)[C@@H](Cc2ccc(C)cc2)C(=O)N(C)CC(=O)N[C@@H](CCc2cc(F)c(C(F)(F)F)c(F)c2)C(=O)N2C[C@@H](C)C[C@H]2C(=O)NC2(CC(C)(C)C2)C(=O)N(C)[C@@H](C2CCCC2)C(=O)N(C)[C@H](C(=O)N(C)C)CC(=O)N1C [PP2439]	6.6 nM	A (a compound having 10 or more and less than 20 is denoted as A)	0.12 nM	A (a compound having 10 or more and less than 20 is denoted as A)	–	–	–	–	–
CCC[C@H]1C(=O)N[C@@H]([C@@H](C)CC)C(=O)N(C)CC(=O)N(C)[C@H]2C/C=C\CCN(C2=O)[C@@H](Cc2ccc(C)cc2)C(=O)N(C)CC(=O)N[C@@H](CCc2cc(F)c(C(F)(F)F)c(F)c2)C(=O)N2CC[C@H](OC)[C@H]2C(=O)N(C)C2(CCC2)C(=O)N(C)[C@@H](C2CCCC2)C(=O)N(C)[C@H](C(=O)N(C)C)CC(=O)N1C [PP3287]	5.4 nM	A (a compound having 10 or more and less than 20 is denoted as A)	–	B (a compound having 3 or more and less than 10 is denoted as B)	0.057 nM	–	–	–	–
CC[C@H](C)[C@@H]1NC(=O)[C@H](CC(C)C)N(C)C(=O)C[C@@H](C(=O)N(C)C)N(C)C(=O)[C@H](C2CCCC2)N(C)C(=O)C2(CCCC2)NC(=O)[C@@H]2CCN2C(=O)[C@H](CCc2cc(F)c(C(F)(F)F)c(F)c2)NC(=O)CN(C)C(=O)[C@H](Cc2ccc(C(F)(F)F)cc2)N2CC/C=C(/F)C[C@@H](C2=O)N(C)C(=O)CN(C)C1=O [PP3521]	36.6 nM	B (a compound having 3 or more and less than 10 is denoted as B)	–	B (a compound having 3 or more and less than 10 is denoted as B)	2.3 nM	–	–	–	–
CCCOC[C@H]1C(=O)N[C@@H]([C@@H](C)CC)C(=O)N(C2CC2)CC(=O)N(C)[C@H]2C/C=C\CCN(C2=O)[C@@H](Cc2ccc(C)cc2)C(=O)N(C)CC(=O)N[C@@H](CCc2ccc(C(F)(F)F)c(OC)c2)C(=O)N2C[C@@H](C)C[C@H]2C(=O)N(C)C2(CCC2)C(=O)N(C)[C@@H](C2CCCC2)C(=O)N(C)[C@H](C(=O)N(C)C)CC(=O)N1C [PP2367]	2.1 nM	A (a compound having 10 or more and less than 20 is denoted as A)	0.075 nM	B (a compound having 3 or more and less than 10 is denoted as B)	–	–	–	–	–
CCC[C@H]1C(=O)N[C@@H]([C@@H](C)CC)C(=O)N(C)CC(=O)N(C)[C@H]2C/C(F)=C\CCN(C2=O)[C@@H](Cc2ccc(C)cc2)C(=O)N(C)CC(=O)N[C@@H](CCc2cc(F)c(C(F)(F)F)c(F)c2)C(=O)N2C[C@H](OCC)C[C@H]2C(=O)N(C)C2(CCC2)C(=O)N(C)[C@@H](C2CCCC2)C(=O)N(C)[C@H](C(=O)N(C)C)CC(=O)N1C [PP3528]	3.7 nM	B (a compound having 3 or more and less than 10 is denoted as B)	–	B (a compound having 3 or more and less than 10 is denoted as B)	0.062 nM	–	–	–	–
CCO[C@@H]1C[C@H]2C(=O)NC3(CCCC3)C(=O)N(C)[C@@H](C3CCCC3)C(=O)N(C)[C@H](C(=O)N3CCOCC3)CC(=O)N(C)[C@@H](CC)C(=O)N[C@@H]([C@@H](C)CC)C(=O)N(C)CC(=O)N(C)[C@H]3CC[C@@H](C)CN(C3=O)[C@@H](Cc3ccc(C(F)(F)F)cc3)C(=O)N(C)CC(=O)N[C@@H](CCc3cc(F)c(C(F)(F)F)c(F)c3)C(=O)N2C1 [PP1371]	–	–	–	–	–	5.1 nM	A (a compound having 10 or more and less than 20 is denoted as A)	0.077 nM	B (a compound having 3 or more and less than 10 is denoted as B)
CCC[C@H]1C(=O)N[C@@H]([C@@H](C)CC)C(=O)N(C2CC2)CC(=O)N(C)[C@H]2C/C=C\CCN(C2=O)[C@@H](Cc2ccc(C(F)(F)F)cc2)C(=O)N(C)CC(=O)N[C@@H](CCc2ccc(C(F)(F)F)c(OC)c2)C(=O)N2C[C@H](OCC)C[C@H]2C(=O)OC2(CCC2)C(=O)N(C)[C@@H](C2CCCC2)C(=O)N(C)[C@H](C(=O)N(C)C)CC(=O)N1C [PP3369]	9.1 nM	A (a compound having 10 or more and less than 20 is denoted as A)	–	A (a compound having 10 or more and less than 20 is denoted as A)	0.86 nM	–	–	–	–
C#CC[C@H]1C(=O)N[C@@H]([C@@H](C)CC)C(=O)N2CCC[C@H]2C(=O)N(C)[C@H]2C/C=C\CCN(C2=O)[C@@H](Cc2ccc(C(F)(F)F)cc2)C(=O)N(C)CC(=O)N[C@@H](CCc2ccc(C(F)(F)F)c(Cl)c2)C(=O)N2C[C@H](OCC)C[C@H]2C(=O)N(C)C2(CCC2)C(=O)N(C)[C@@H](C2CCCC2)C(=O)N(C)[C@H](C(=O)N(C)C)CC(=O)N1C [PP3254]	3.6 nM	A (a compound having 10 or more and less than 20 is denoted as A)	–	B (a compound having 3 or more and less than 10 is denoted as B)	0.086 nM	–	–	–	–
C=C(C)C[C@H]1C(=O)N(C)[C@H](C(=O)N(C)C)CC(=O)N(C)[C@@H](CC(C)C)C(=O)N[C@@H]([C@@H](C)CC)C(=O)N(C)CC(=O)N(C)[C@H]2C/C=C\CCN(C2=O)[C@@H](Cc2ccc(C)cc2)C(=O)N(C)CC(=O)N[C@@H](CCc2cc(F)c(C(F)(F)F)c(F)c2)C(=O)N2C[C@H](OCC)C[C@H]2C(=O)N(C)C2(CCC2)C(=O)N1C [PP3349]	15.7 nM	A (a compound having 10 or more and less than 20 is denoted as A)	–	A (a compound having 10 or more and less than 20 is denoted as A)	1.7 nM	–	–	–	–
CCC[C@H]1C(=O)N[C@@H]([C@@H](C)CC)C(=O)N2CCC[C@H]2C(=O)N(C)[C@H]2C/C=C\CCN(C2=O)[C@@H](Cc2ccc(C(F)(F)F)cc2)C(=O)N(C)CC(=O)N[C@@H](CCc2cc(F)c(C(F)(F)F)c(F)c2)C(=O)N2C[C@H](OCC)C[C@H]2C(=O)NC2(CCCC2)C(=O)N(C)[C@@H](C2CCCC2)C(=O)N(C)[C@H](C(=O)N(C)C)CC(=O)N1C [PP3474]	14.8 nM	A (a compound having 10 or more and less than 20 is denoted as A)	–	A (a compound having 10 or more and less than 20 is denoted as A)	0.43 nM	–	–	–	–
CCO[C@@H]1C[C@H]2C(=O)NC3(CCC3)C(=O)N(C)[C@@H](C3CCCC3)C(=O)N(C)[C@H](C(=O)N3CCCCC3)CC(=O)N(C)[C@@H](CC)C(=O)N[C@@H]([C@@H](C)CC)C(=O)N(C)CC(=O)N(C)[C@H]3C/C=C\CCN(C3=O)[C@@H](Cc3ccc(C(F)(F)F)cc3)C(=O)N(C)CC(=O)N[C@@H](CCc3cc(F)c(C(F)(F)F)c(F)c3)C(=O)N2C1 [PP1289]	–	–	–	–	–	34.7 nM	AA (a compound having 20 or more is denoted as AA)	0.17 nM	A (a compound having 10 or more and less than 20 is denoted as A)
CCOC[C@H]1C(=O)N[C@@H]([C@@H](C)CC)C(=O)N2CCC[C@H]2C(=O)N(C)[C@H]2C/C=C\CCN(C2=O)[C@@H](CC2CCCCC2)C(=O)N(C)CC(=O)N[C@@H](CCc2ccc(C(F)(F)F)c(OC)c2)C(=O)N2C[C@@H](C)C[C@H]2C(=O)N(C)C2(CCC2)C(=O)N(C)[C@@H](C2CCCC2)C(=O)N(C)[C@H](C(=O)N(C)C)CC(=O)N1C [PP2375]	172 nM	A (a compound having 10 or more and less than 20 is denoted as A)	1.1 nM	B (a compound having 3 or more and less than 10 is denoted as B)	–	–	–	–	–
CCO[C@@H]1C[C@H]2C(=O)NC3(CCC3)C(=O)N(C)[C@@H](C3CCCC3)C(=O)N(C)[C@H](C(=O)N(C)C)CC(=O)N(C)[C@@H](CC3CC3)C(=O)N[C@@H]([C@@H](C)CC)C(=O)N(C)CC(=O)N(C)[C@H]3C/C=C\CCN(C3=O)[C@@H](Cc3ccc(C)cc3)C(=O)N(C)CC(=O)N[C@@H](CCc3cc(F)c(Cl)c(F)c3)C(=O)N2C1 [PP1484]	–	–	–	–	–	59.3 nM	A (a compound having 10 or more and less than 20 is denoted as A)	0.45 nM	A (a compound having 10 or more and less than 20 is denoted as A)
CCO[C@@H]1C[C@H]2C(=O)NC3(CCCC3)C(=O)N(C)[C@@H](C3CCCC3)C(=O)N(C)[C@H](C(=O)N(C)C)CC(=O)N(C)[C@@H](CC3CC3)C(=O)N[C@@H]([C@@H](C)CC)C(=O)N(C)CC(=O)N(C)[C@H]3C[C@@H](C)[C@@H](C)CN(C3=O)[C@@H](Cc3ccc(C(F)(F)F)cc3)C(=O)N(C)CC(=O)N[C@@H](CCc3ccc(C(F)(F)F)c(Cl)c3)C(=O)N2C1 [PP1362]	–	–	–	–	–	3.7 nM	A (a compound having 10 or more and less than 20 is denoted as A)	0.037 nM	B (a compound having 3 or more and less than 10 is denoted as B)
